Measurements taken from PubChem BioAssay AID2060900 (Molecular Pharmacology Branch, DTP, NCI, 2025).
Values joined by “and” are separate entries in the source; they are usually repeats but may differ in a detail not shown here. Equal entries are not always repeated.

Tested on: 521955-158-R2-J5-PDC complex spheroids, viability
Assay: Anticancer human tumor 521955-158-R2-J5-PDC patient-derived pancreatic carcinoma cell line growth inhibition [RAS]
Details: for viability, T/C: stronger effect = lower value
In short: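 Multi-cell-type spheroids: tumor cells plus HUVEC endothelial cells and mesenchymal stem cells. RAS-pathway inhibitors were combined with targeted agents, each dosed in half-log steps down from clinical Cmax, or from 10 microM when Cmax was unknown.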

[1] = curve of first compound, second compound 0.000949 µM
[2] = curve of first compound, second compound 0.003 µM
[3] = curve of first compound, second compound 0.00949 µM
[4] = curve of first compound, second compound 0.03 µM
[5] = curve of first compound, second compound 0.0949 µM
[6] = curve of first compound, second compound 0.3 µM
[7] = second compound 0.000949 µM, first compound 0.0316 µM
[8] = second compound 0.000949 µM, first compound 0.1 µM
[9] = second compound 0.003 µM, first compound 0.0316 µM
[10] = second compound 0.003 µM, first compound 0.1 µM
[11] = second compound 0.00949 µM, first compound 0.0316 µM
[12] = second compound 0.00949 µM, first compound 0.1 µM
[13] = second compound 0.03 µM, first compound 0.0316 µM
[14] = second compound 0.03 µM, first compound 0.1 µM
[15] = second compound 0.0949 µM, first compound 0.0316 µM
[16] = second compound 0.0949 µM, first compound 0.1 µM
[17] = second compound 0.3 µM, first compound 0.0316 µM
[18] = second compound 0.3 µM, first compound 0.1 µM
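Also: compound exposure lasted seven days before the viability read.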
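For viability, T/C in this document: spheroids also contain HUVEC endothelial cells and mesenchymal stem cells as stroma.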

CC(C)n1nc(-c2ccc3oc(N)nc3c2)c2c(N)ncnc21 + CCn1c(-c2cc(N3CCN(C)CC3)cnc2C(C)OC)c2c3cc(ccc31)-c1csc(n1)CC(NC(=O)C1CC1C)C(=O)N1CCCC(N1)C(=O)OCC(C)(C)C2
IC50 [1]: < 0.316 nM
IC50 [2]: < 0.316 nM
IC50 [3]: < 0.316 nM
IC50 [4]: < 0.316 nM
IC50 [5]: < 0.316 nM
IC50 [6]: < 0.316 nM
viability, T/C (second compound 0.000949 µM, first compound 0.000316 µM): 38.5%
viability, T/C (second compound 0.000949 µM, first compound 0.001 µM): 40.2%
viability, T/C (second compound 0.000949 µM, first compound 0.00316 µM): 37.6%
viability, T/C (second compound 0.000949 µM, first compound 0.01 µM): 39.8%
viability, T/C [7]: 22.7%
viability, T/C [8]: 21.2%
viability, T/C (second compound 0.003 µM, first compound 0.000316 µM): 34.6%
viability, T/C (second compound 0.003 µM, first compound 0.001 µM): 38.8%
viability, T/C (second compound 0.003 µM, first compound 0.00316 µM): 28.7%
viability, T/C (second compound 0.003 µM, first compound 0.01 µM): 22.6%
viability, T/C [9]: 11.2%
viability, T/C [10]: 7.9%
viability, T/C (second compound 0.00949 µM, first compound 0.000316 µM): 31.3%
viability, T/C (second compound 0.00949 µM, first compound 0.001 µM): 30.2%
viability, T/C (second compound 0.00949 µM, first compound 0.00316 µM): 34.9%
viability, T/C (second compound 0.00949 µM, first compound 0.01 µM): 21.4%
viability, T/C [11]: 14.2%
viability, T/C [12]: 6.83%
viability, T/C (second compound 0.03 µM, first compound 0.000316 µM): 25.3%
viability, T/C (second compound 0.03 µM, first compound 0.001 µM): 22%
viability, T/C (second compound 0.03 µM, first compound 0.00316 µM): 20.4%
viability, T/C (second compound 0.03 µM, first compound 0.01 µM): 17.9%
viability, T/C [13]: 11.7%
viability, T/C [14]: 6.04%
viability, T/C (second compound 0.0949 µM, first compound 0.000316 µM): 11.8%
viability, T/C (second compound 0.0949 µM, first compound 0.001 µM): 11%
viability, T/C (second compound 0.0949 µM, first compound 0.00316 µM): 15.8%
viability, T/C (second compound 0.0949 µM, first compound 0.01 µM): 12.2%
viability, T/C [15]: 10%
viability, T/C [16]: 3.64%
viability, T/C (second compound 0.3 µM, first compound 0.000316 µM): 9.8%
viability, T/C (second compound 0.3 µM, first compound 0.001 µM): 10.4%
viability, T/C (second compound 0.3 µM, first compound 0.00316 µM): 7.93%
viability, T/C (second compound 0.3 µM, first compound 0.01 µM): 7.87%
viability, T/C [17]: 6.76%
viability, T/C [18]: 3.75%

CC1(O)CCCC1n1c(=O)c(C(F)F)cc2cnc(NC3CCN(S(C)(=O)=O)CC3)nc21 (stereo not given) + C#Cc1c(F)ccc2cc(O)cc(-c3ncc4c(N5CC6CCC(C5)N6)nc(OCC56CCCN5CC(F)C6)nc4c3F)c12
IC50 (curve of first compound, second compound 0.0316 µM): > 10000 nM
IC50 (curve of first compound, second compound 0.1 µM): 3760 nM
IC50 (curve of first compound, second compound 0.316 µM): < 31.6 nM
IC50 (curve of first compound, second compound 1 µM): 31.6 nM
IC50 (curve of first compound, second compound 3.16 µM): < 31.6 nM
IC50 (curve of first compound, second compound 10 µM): < 31.6 nM
viability, T/C (second compound 0.0316 µM, first compound 0.0316 µM): 53.9%
viability, T/C (second compound 0.0316 µM, first compound 0.1 µM): 48%
viability, T/C (second compound 0.0316 µM, first compound 0.316 µM): 60.1%
viability, T/C (second compound 0.0316 µM, first compound 1 µM): 68.4%
viability, T/C (second compound 0.0316 µM, first compound 3.16 µM): 75.1%
viability, T/C (second compound 0.0316 µM, first compound 10 µM): 24.9%
viability, T/C (second compound 0.1 µM, first compound 0.0316 µM): 48.8%
viability, T/C (second compound 0.1 µM, first compound 0.1 µM): 56.6%
viability, T/C (second compound 0.1 µM, first compound 0.316 µM): 43.4%
viability, T/C (second compound 0.1 µM, first compound 1 µM): 53.9%
viability, T/C (second compound 0.1 µM, first compound 3.16 µM): 73%
viability, T/C (second compound 0.1 µM, first compound 10 µM): 21.3%
viability, T/C (second compound 0.316 µM, first compound 0.0316 µM): 44.5%
viability, T/C (second compound 0.316 µM, first compound 0.1 µM): 37.4%
viability, T/C (second compound 0.316 µM, first compound 0.316 µM): 41.1%
viability, T/C (second compound 0.316 µM, first compound 1 µM): 51.3%
viability, T/C (second compound 0.316 µM, first compound 3.16 µM): 63.1%
viability, T/C (second compound 0.316 µM, first compound 10 µM): 19.5%
viability, T/C (second compound 1 µM, first compound 0.0316 µM): 52.3%
viability, T/C (second compound 1 µM, first compound 0.1 µM): 41.4%
viability, T/C (second compound 1 µM, first compound 0.316 µM): 39.8%
viability, T/C (second compound 1 µM, first compound 1 µM): 47.8%
viability, T/C (second compound 1 µM, first compound 3.16 µM): 59.5%
viability, T/C (second compound 1 µM, first compound 10 µM): 21.6%
viability, T/C (second compound 3.16 µM, first compound 0.0316 µM): 45.9%
viability, T/C (second compound 3.16 µM, first compound 0.1 µM): 31.5%
viability, T/C (second compound 3.16 µM, first compound 0.316 µM): 38.8%
viability, T/C (second compound 3.16 µM, first compound 1 µM): 40.6%
viability, T/C (second compound 3.16 µM, first compound 3.16 µM): 56.6%
viability, T/C (second compound 3.16 µM, first compound 10 µM): 24.4%
viability, T/C (second compound 10 µM, first compound 0.0316 µM): 42.4%
viability, T/C (second compound 10 µM, first compound 0.1 µM): 30.6%
viability, T/C (second compound 10 µM, first compound 0.316 µM): 40.4%
viability, T/C (second compound 10 µM, first compound 1 µM): 46.2%
viability, T/C (second compound 10 µM, first compound 3.16 µM): 62.8%
viability, T/C (second compound 10 µM, first compound 10 µM): 12.3%

C=CC(=O)Nc1cc(Nc2nccc(-c3cn(C)c4ccccc34)n2)c(OC)cc1N(C)CCN(C)C
viability, T/C (compound 0.00316 µM): 101% [middle of 4 runs]
viability, T/C (compound 0.0316 µM): 94.7% [middle of 4 runs]
viability, T/C (compound 0.1 µM): 79.1% [middle of 4 runs]
IC50 (curve of compound): 965 nM and 466 nM and > 1000 nM

NC1c2ccccc2OC12CCN(c1cnc3c(N4CCCc5ncccc54)n[nH]c3n1)CC2 (stereo not given) + CCn1c(-c2cccnc2C(C)OC)c2c3cc(ccc31)N1CCOC(CC(NC(=O)C(C(C)C)N(C)C(=O)C3(F)CCN(C(=O)C#CC(C)(C)N(C)C)CC3)C(=O)N3CCCC(N3)C(=O)OCC(C)(C)C2)C1
IC50 [1]: 4500 nM
IC50 [2]: > 10000 nM
IC50 [3]: 987 nM
IC50 [4]: > 10000 nM
IC50 [5]: 1200 nM
IC50 [6]: 129 nM
viability, T/C [7]: 62.7%
viability, T/C [8]: 61.4%
viability, T/C (second compound 0.000949 µM, first compound 0.316 µM): 53.5%
viability, T/C (second compound 0.000949 µM, first compound 1 µM): 52.3%
viability, T/C (second compound 0.000949 µM, first compound 3.16 µM): 50.2%
viability, T/C (second compound 0.000949 µM, first compound 10 µM): 50%
viability, T/C [9]: 64%
viability, T/C [10]: 51%
viability, T/C (second compound 0.003 µM, first compound 0.316 µM): 58.8%
viability, T/C (second compound 0.003 µM, first compound 1 µM): 55.4%
viability, T/C (second compound 0.003 µM, first compound 3.16 µM): 52.7%
viability, T/C (second compound 0.003 µM, first compound 10 µM): 49.8%
viability, T/C [11]: 53.7%
viability, T/C [12]: 48.1%
viability, T/C (second compound 0.00949 µM, first compound 0.316 µM): 51.8%
viability, T/C (second compound 0.00949 µM, first compound 1 µM): 52.5%
viability, T/C (second compound 0.00949 µM, first compound 3.16 µM): 53.2%
viability, T/C (second compound 0.00949 µM, first compound 10 µM): 43.6%
viability, T/C [13]: 60.3%
viability, T/C [14]: 56.8%
viability, T/C (second compound 0.03 µM, first compound 0.316 µM): 44.2%
viability, T/C (second compound 0.03 µM, first compound 1 µM): 51.3%
viability, T/C (second compound 0.03 µM, first compound 3.16 µM): 58.9%
viability, T/C (second compound 0.03 µM, first compound 10 µM): 47.1%
viability, T/C [15]: 52.9%
viability, T/C [16]: 54.4%
viability, T/C (second compound 0.0949 µM, first compound 0.316 µM): 43.3%
viability, T/C (second compound 0.0949 µM, first compound 1 µM): 49.7%
viability, T/C (second compound 0.0949 µM, first compound 3.16 µM): 56.5%
viability, T/C (second compound 0.0949 µM, first compound 10 µM): 45.7%
viability, T/C [17]: 51.3%
viability, T/C [18]: 46.3%
viability, T/C (second compound 0.3 µM, first compound 0.316 µM): 51.9%
viability, T/C (second compound 0.3 µM, first compound 1 µM): 51.3%
viability, T/C (second compound 0.3 µM, first compound 3.16 µM): 49.5%
viability, T/C (second compound 0.3 µM, first compound 10 µM): 42.9%
